Results from ChEMBL document CHEMBL1201862, “PubChem BioAssay data set” (2004).
Active and inactive are the calls of the source.

Legend:
[1] = Luminescence Cell-Based Secondary HTS screen to identify cytotoxic compounds of NIH3T3 cells. [Related pubchem assays: 1885, 1968 ]; assay type: functional
[2] = Luminescence Cell-Based/Microorganism Confirmation at Dose of Inhibitors of Trypanosoma cruzi Infection. [Related pubchem assays: 1885, 1968 ]; assay type: functional
[3] = T. cruzi infection blockers in NIH3T3 cells – beta-gal luminescence, NIH3T3 host cells, confirmation (AID 2630); assay type: functional, cell-based; conditions: Mus musculus
[4] = test system: A-375; test: MITF: Counter assay: A375 proliferation Measured in Cell-Based System Using Plate Reader - 2084-03_Inhibitor_Dose_DryPowder_Activity. [Related pubchem assays (depositor defined):AID488944]; assay type: functional; conditions: Homo sapiens
[5] = non-specific 3'UTR reporter inhibition in Clone20-Shn3RL – cell-based, Renilla luciferase, cherry-picked, counter-screen for Shn3 inhibitor project, dose response (AID 624133); assay type: functional
[6] = test system: A-375; test: proliferation inhibition in MITF-low A375 cells – cell-based, cherry-pick samples, set 2, counter-screen for MITF modulator project, dose response (AID 540335); assay type: functional; conditions: Homo sapiens
[7] = CMV-driven luciferase expression suppression in HEK293 – cell-based, luminescence, dry powder, counter-screen for Pax8 inhibitor project, dose response (AID 743020); assay type: functional
[8] = molecular target: Paired box protein Pax-8 (Homo sapiens, UniProt Q06710); test: PAX8 transcriptional activity inhibition in RMG-I – RMG-I cells, luciferase, cherry-pick, dose response (AID 687027); assay type: functional, cell-based;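 note: luciferase reporter driven by Pax8 target thyroperoxidase promoter measured by SteadyGlo luminescence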
Sequence of Paired box protein Pax-8 (Q06710 whole entry): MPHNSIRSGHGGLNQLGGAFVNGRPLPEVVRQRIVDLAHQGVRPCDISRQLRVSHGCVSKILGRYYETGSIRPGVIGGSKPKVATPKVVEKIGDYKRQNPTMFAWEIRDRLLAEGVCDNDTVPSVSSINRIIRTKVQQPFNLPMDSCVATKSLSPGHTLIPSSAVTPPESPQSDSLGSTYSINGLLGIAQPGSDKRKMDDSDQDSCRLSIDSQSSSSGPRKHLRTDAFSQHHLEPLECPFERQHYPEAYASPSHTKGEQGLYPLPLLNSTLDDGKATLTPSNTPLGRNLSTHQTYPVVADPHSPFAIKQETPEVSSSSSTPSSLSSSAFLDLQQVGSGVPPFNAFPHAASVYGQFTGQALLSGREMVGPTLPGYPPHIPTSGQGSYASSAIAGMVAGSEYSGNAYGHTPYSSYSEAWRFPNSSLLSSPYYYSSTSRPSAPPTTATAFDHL

[9] = test system: HeLa; test: Cytotoxicity counterscreen assay for transcriptional activators of heat shock protein 70 (Hsp70). [Related pubchem assays: 1203, 1252 ]; assay type: functional; conditions: Homo sapiens;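 note: cells exposed to compound for 16 hours before readout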
[10] = molecular target: T1, Microphthalmia-associated transcription factor (Homo sapiens, UniProt O75030); test: reducers of TRPM1 reporter luminescence, concentration series – cell-based, SK-MEL-5, cherry-picked, set 3, MITF inhibitor project, dose response (AID 493073); assay type: functional;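 note: SK-MEL-5 melanoma cells with luciferase driven by the MITF target TRPM1 promoter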
T1 sequence (O75030 whole entry): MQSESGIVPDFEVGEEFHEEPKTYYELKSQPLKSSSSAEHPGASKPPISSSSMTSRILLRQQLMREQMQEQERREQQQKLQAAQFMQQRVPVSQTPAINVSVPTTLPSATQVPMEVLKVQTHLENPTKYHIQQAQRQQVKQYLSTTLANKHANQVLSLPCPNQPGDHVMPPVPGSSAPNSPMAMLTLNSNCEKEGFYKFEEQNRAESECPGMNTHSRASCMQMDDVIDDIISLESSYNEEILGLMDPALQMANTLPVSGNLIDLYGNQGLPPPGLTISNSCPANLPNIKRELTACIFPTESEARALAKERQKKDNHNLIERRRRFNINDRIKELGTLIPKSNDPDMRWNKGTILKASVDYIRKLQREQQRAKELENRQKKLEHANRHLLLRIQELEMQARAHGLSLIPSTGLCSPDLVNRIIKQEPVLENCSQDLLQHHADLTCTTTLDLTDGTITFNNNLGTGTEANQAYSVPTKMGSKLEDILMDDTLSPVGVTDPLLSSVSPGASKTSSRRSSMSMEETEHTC

[11] = reduction of Shn3 3'UTR-driven luciferase in osteoblasts – cell-based, Clone20 osteoblasts, firefly luciferase, cherry-picked, dose response (AID 624132); assay type: functional;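 note: firefly luciferase luminescence from reporter carrying the Shn3 3'UTR in osteoblasts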
[12] = loss of viability in HepG2 cells – cell-based, CellTiter-Glo, cherry-picked, cytotoxicity control for Shn3 inhibitor project, dose response (AID 624134); assay type: functional
[13] = molecular target: Galanin receptor type 3 (Homo sapiens, UniProt O60755); test: Fluorescence-based cell-based primary high throughput dose response assay to identify antagonists of the Galanin Receptor 3 (GalR3).; assay type: functional
Sequence of Galanin receptor type 3 (O60755 whole entry): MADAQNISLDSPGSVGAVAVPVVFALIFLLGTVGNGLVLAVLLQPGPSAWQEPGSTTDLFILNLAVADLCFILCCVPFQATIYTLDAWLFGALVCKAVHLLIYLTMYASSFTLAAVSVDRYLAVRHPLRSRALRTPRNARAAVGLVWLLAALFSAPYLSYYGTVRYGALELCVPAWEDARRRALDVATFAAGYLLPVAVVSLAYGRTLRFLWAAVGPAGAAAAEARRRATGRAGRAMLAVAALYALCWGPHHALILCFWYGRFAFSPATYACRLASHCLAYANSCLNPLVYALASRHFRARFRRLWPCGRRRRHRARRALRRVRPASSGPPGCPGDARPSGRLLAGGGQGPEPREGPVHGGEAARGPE

[14] = cells; assay type: functional, cell-based; conditions: HEK-CNG
[15] = molecular target: Galanin receptor type 2 (Homo sapiens, UniProt O43603); test: Dose Response cell-based high-throughput screening assay to identify antagonists of galanin receptor 2 (GALR2). [Related pubchem assays: 828, 866 ]; assay type: functional
Sequence of Galanin receptor type 2 (O43603 whole entry): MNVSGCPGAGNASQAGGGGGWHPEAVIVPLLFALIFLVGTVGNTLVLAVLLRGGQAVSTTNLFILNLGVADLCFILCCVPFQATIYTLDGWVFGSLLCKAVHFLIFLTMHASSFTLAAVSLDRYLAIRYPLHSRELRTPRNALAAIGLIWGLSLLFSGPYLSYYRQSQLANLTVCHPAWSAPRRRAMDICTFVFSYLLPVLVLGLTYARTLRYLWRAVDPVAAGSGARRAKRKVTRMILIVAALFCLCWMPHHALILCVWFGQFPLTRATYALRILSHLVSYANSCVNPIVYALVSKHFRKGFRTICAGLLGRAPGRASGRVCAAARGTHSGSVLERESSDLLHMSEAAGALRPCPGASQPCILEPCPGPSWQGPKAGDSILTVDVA

[16] = HEK-293T viability loss, compound-treated – cell-based, uHTS hits, cytotoxicity control for B/T-cell NF-kB inhibitor project, dose response (AID 489019); assay type: functional;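 note: IC50 reflects cytotoxicity as loss of cell viability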
[17] = test system: INS1; test: INS-1E survival protection against cytokine death – cell-based, luminescence, retest, dose response (AID 449756); assay type: functional; conditions: Rattus norvegicus;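 note: cell death triggered by IL-1 beta plus TNF-alpha plus IFN-gamma mixture; protective hits raise ATP signal compared with cytokine alone wells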
[18] = test system: Jurkat; test: blockers of NF-kB activation in T cells – Jurkat, luciferase reporter, luminescence, B- and T-cell, dose response (AID 489004); assay type: functional, cell-based; conditions: Homo sapiens;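 note: NF-kB luciferase reporter Jurkat cells stimulated with PMA plus ionomycin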
[19] = molecular target: Lysine-specific demethylase 4C (Homo sapiens, UniProt Q9H3R0); test: inhibition of JMJD2C H3K9me3 demethylation – biochemical, DELFIA europium, cherry-picked samples, dose response (AID 488835); assay type: functional
Sequence of Lysine-specific demethylase 4C (Q9H3R0 whole entry): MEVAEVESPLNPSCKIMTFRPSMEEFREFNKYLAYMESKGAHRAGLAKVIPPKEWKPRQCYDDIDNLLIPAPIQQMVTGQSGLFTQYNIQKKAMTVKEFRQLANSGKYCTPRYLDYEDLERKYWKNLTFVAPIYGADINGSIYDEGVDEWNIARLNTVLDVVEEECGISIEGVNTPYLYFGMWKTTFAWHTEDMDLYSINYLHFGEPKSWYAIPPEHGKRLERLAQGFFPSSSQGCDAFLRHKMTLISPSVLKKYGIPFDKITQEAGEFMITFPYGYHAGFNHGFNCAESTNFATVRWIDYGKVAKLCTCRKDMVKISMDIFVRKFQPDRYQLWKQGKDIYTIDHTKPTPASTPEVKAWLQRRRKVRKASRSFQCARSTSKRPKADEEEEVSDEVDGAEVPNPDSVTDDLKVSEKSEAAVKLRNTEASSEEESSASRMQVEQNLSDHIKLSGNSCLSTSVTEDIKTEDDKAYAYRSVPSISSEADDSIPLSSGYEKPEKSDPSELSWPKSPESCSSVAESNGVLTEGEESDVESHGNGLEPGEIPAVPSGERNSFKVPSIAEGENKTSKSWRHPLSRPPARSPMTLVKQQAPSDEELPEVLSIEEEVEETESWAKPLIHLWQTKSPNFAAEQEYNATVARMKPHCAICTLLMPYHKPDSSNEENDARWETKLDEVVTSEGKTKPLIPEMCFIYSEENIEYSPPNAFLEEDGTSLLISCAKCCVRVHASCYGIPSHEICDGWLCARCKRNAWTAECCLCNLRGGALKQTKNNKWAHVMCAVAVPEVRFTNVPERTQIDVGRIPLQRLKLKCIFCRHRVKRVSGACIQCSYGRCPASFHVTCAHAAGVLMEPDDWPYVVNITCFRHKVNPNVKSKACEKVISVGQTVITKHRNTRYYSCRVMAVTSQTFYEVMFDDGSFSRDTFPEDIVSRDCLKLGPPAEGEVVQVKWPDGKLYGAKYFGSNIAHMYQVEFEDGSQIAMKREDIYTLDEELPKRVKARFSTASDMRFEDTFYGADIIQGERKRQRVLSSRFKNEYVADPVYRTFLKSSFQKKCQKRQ

[20] = HEK-293T viability loss after treatment – luminescence, T-cell screen hits, cytotoxicity control for TCR NF-kB inhibitor project, dose response (AID 489026); assay type: functional, cell-based;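 note: cells exposed to compound about 14 hours before the viability readout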
[21] = molecular target: T2, Cysteine protease ATG4B (Homo sapiens, UniProt Q9Y4P1); test: autophagin-1 cysteine protease inhibition – biochemical, fluorescence, set 2, dose response (AID 588584); assay type: functional
T2 sequence (Q9Y4P1 whole entry): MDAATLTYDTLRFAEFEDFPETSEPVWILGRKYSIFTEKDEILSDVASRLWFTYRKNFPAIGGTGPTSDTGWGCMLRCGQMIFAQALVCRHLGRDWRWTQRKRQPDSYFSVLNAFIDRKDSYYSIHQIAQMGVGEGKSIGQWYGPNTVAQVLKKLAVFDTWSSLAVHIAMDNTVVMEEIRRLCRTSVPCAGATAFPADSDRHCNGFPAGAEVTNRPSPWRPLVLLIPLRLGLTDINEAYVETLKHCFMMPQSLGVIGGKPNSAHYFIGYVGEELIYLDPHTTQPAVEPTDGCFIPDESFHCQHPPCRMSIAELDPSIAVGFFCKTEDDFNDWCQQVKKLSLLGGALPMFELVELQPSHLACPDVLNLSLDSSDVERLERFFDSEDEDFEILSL

[22] = molecular target: Phospholipase A2 (Homo sapiens, UniProt P04054); test: phospholipase A2 activity inhibition – biochemical, set 2, counter-screen for ATG4B inhibitor project, dose response (AID 588586); assay type: functional
Sequence of Phospholipase A2 (P04054 whole entry): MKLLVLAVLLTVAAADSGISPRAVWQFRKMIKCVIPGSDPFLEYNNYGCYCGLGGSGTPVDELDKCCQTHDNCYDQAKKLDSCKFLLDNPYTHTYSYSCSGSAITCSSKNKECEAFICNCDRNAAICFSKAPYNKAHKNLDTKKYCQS

For `CC(C)c1cccc(OCCCCN(C)C)c1`, the EC50 [1] was > 195 µM (not active), the EC50 [2] was 2.18 µM (active) and the EC50 [3] was 2.18 µM (active).
For `CCC(=O)N1CCN(c2ccc(NC(=O)c3ccc([N+](=O)[O-])o3)cc2Cl)CC1`, the AC50 [4] was > 35 µM (active), the AC50 [5] was 5.2 µM (active) and the AC50 [6] was > 35 µM (active). The AC50 [7] was 2.21 µM (active), the AC50 [8] was 4.12 µM (active) and the CC50 [9] was 4.57 µM (active). For the same compound, the AC50 [10] was 6.09 µM (active), the AC50 [11] was 0.85 µM (active) and the AC50 [12] was 20.5 µM (active).
With `Cn1nc(C(C)(C)C)cc1C(=O)NCc1ccc(N2CCCC2=O)cc1` the IC50 [13] was 1.13 µM (active), the EC50 [14] was > 29.9 µM (inactive) and the IC50 [15] was > 42 µM (not active). For the same compound, the IC50 [16] was > 80 µM (inactive), the AC50 [17] was 2.85 µM (active) and the IC50 [18] was > 80 µM (inactive).
For `Nc1c(O)nc(O)nc1C(=O)OCC(=O)Nc1ccc(Cl)cc1[N+](=O)[O-]`, the AC50 [19] was 8.98 µM (active).
In the case of `Cc1noc(C)c1CSc1nc2ccccc2c(=O)n1-c1ccccc1`, the IC50 [20] is reported as > 80 µM (inactive), the IC50 [21] is reported as 19.2 µM (active) and the IC50 [22] is reported as 10.7 µM (active).
